Reference: PubChem BioAssay AID732 (Emory University Molecular Libraries Screening Center, 2007)
Where “and” joins values, the source holds several entries; their conditions need not be identical. Identical values can stand only once. Calls of active or inactive are those of the source. No rule for the calls is given here.

Tested on: in vivo angiogenesis, blood vessel count
Assay: angiogenesis inhibition in living animals, in vivo study, HTS (AID 732);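 also: zebrafish embryos dosed at one day post fertilization; 0% = reference inhibitor and 100% = plate mean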
Settings: stronger effect = lower value;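 tested at 30 µM in the well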

Compound	vessel count % control
CN(C)CCC(c1ccc(Br)cc1)c1ccccn1 (stereo unspecified)	92.3% (inactive)
CN(C)CC/C=C1\c2ccccc2COc2ccccc21	97.3% (inactive)
O=c1c(-c2ccc(O)cc2)coc2cc(O)cc(O)c12	107% (inactive)
c1ccc2nc(N3CCNCC3)ccc2c1	98% (inactive)
COc1ccc2[nH]c(I)c(CCNC(C)=O)c2c1	107% (inactive)
c1ccc2c(c1)[I+]c1ccccc1-2	112% (inactive)
COc1ccc2c(c1)c(CC(=O)O)c(C)n2Cc1ccc(Cl)cc1	109% (inactive)
O=C(c1ccc(OCCN2CCCCC2)cc1)c1c(-c2ccc(O)cc2)sc2cc(O)ccc12	87.4% (inactive)
COc1ccc(CCN)cc1O	108% (inactive)
CN1Cc2c(N)cccc2C(c2ccccc2)C1 (stereo unspecified)	112% (inactive)
CCCN(CCc1ccccc1)C1CCc2c(O)cccc2C1 (stereo unspecified)	88.9% (inactive)
Fc1ccc(CN(C2=NCCN2)c2c(Cl)cccc2Cl)cc1	92.2% (inactive)
N#C/C(=C\c1ccc(O)c(O)c1)C(=O)Nc1ccccc1	104% (inactive)
CCCCC/C=C\CC(O)/C=C/c1cccc(CC(O)CCCCO)n1 (stereo unspecified)	100% (inactive)
CCOC(=O)C(C)(C)Oc1ccc(Cl)cc1	55.4% (inactive)
CO[C@@]1(NC(=O)CSCC#N)C(=O)N2C(C(=O)O)=C(CSc3nnnn3C)CS[C@@H]21	122% (inactive)
CC(=O)C(C)=O	99.7% (inactive)
OC(CN1CCC(Cc2ccc(F)cc2)CC1)c1ccc(Cl)cc1 (stereo unspecified)	61.6% (inactive)
O=C(OCCN1CCOCC1)C1(c2ccccc2)CCCCC1	91.6% (inactive)
COc1ccccc1N1CCN(CCN(C(=O)c2ccc(I)cc2)c2ccccn2)CC1	105% (inactive)
OCCN1CCN(CC/C=C2/c3ccccc3Sc3ccc(C(F)(F)F)cc32)CC1	110% (inactive)
O=Nc1ccc2oc(=O)ccc2c1	95% (inactive)
CCn1cc(C(=O)O)c(=O)c2ccc(Cc3ccccc3)nc21	108% (inactive)
N[C@@H](Cc1ccc(O)c(O)c1)C(=O)O	118% (inactive)
C[C@H](N)CN1CCc2ccc(Br)cc21	126% (inactive)
NC(=O)N1c2ccccc2C=Cc2ccccc21	96.4% (inactive)

Compound	vessel count % control
COc1ccccc1N1CCN(CCCCNC(=O)c2ccc3ccccc3c2)CC1	52% (inactive)
CCn1cc(C(=O)O)c(=O)c2ccc(C)nc21	135% (inactive)
CCC1(O)CC2CN(CCc3c([nH]c4ccccc34)[C@@](C(=O)OC)(c3cc4c(cc3OC)N(C)C3[C@]45CCN4CC=C[C@@](CC)([C@@H](OC(C)=O)[C@]3(O)C(=O)OC)[C@H]45)C2)C1 (stereo partly specified)	112% (inactive)
CNC[C@H](O)c1cccc(O)c1	109% (inactive)
O=C(O)C1=CCNCC1	131% (inactive)
C/C(=C\c1ccc(C(=O)O)cc1)c1ccc2c(c1)C(C)(C)CCC2(C)C	70% (inactive)
COc1ccc(CCNC[C@@H](O)c2ccc(O)cc2)cc1OC	105% (inactive)
Nc1ccc(CCNc2ncnc3c2ncn3C2OC(CO)C(O)C2O)cc1 (stereo unspecified)	110% (inactive)
OC[C@H]1O[C@@H](n2cnc3c(Nc4ccccc4)ncnc32)C(O)[C@H]1O (stereo partly specified)	110% (inactive)
CN1CCc2ccccc2Cc2[nH]c3ccccc3c2CC1	66.8% (inactive)
O=c1[nH]c2ccccc2n1C1CCN(CCCC(c2ccc(F)cc2)c2ccc(F)cc2)CC1	52.9% (inactive)
O=C(C1CCCCC1)N1CC(=O)N2CCc3ccccc3C2C1 (stereo unspecified)	101% (inactive)
O=C(O)C1CN(CCCP(=O)(O)O)CCN1 (stereo unspecified)	119% (inactive)
O=C(O)CCCCCCCC(=O)O	95.3% (inactive)
N#CC(C#N)=C(N)/C(C#N)=C/c1ccc(O)cc1	93% (inactive)
CC(C)NCC(O)COc1cccc2[nH]ccc12 (stereo unspecified)	90.8% (inactive)
Cc1cc2c(cc1Cl)N(C(=O)Nc1ccnc3ccccc13)CC2	108% (inactive)
O=C1c2ccccc2-c2n[nH]c3cccc1c23	107% (inactive)
CC(C(O)c1ccc(O)cc1)N1CCC(Cc2ccccc2)CC1 (stereo unspecified)	0% (inactive)
NCCSSCCN	118% (inactive)
CC1(C(=O)O)C2CCC(O2)C1(C)C(=O)O (stereo unspecified)	0% (inactive)
COC(=O)[C@H](NC(=O)c1cc(-c2ccccc2)nc2ccccc12)c1ccccc1	97.2% (inactive)
CCC(CO)Nc1nc(NCc2ccccc2)c2ncn(C(C)C)c2n1 (stereo unspecified)	82.5% (inactive)
OC1CCCCC1N1CCC(c2ccccc2)CC1 (stereo unspecified)	99% (inactive)
CN(C)C(=O)Oc1cccc([N+](C)(C)C)c1	87.6% (inactive)
COc1cc2c(CCNC(C)=O)c[nH]c2cc1O	105% (inactive)

Compound	vessel count % control
Nc1nc2c(ncn2COC(CO)CO)c(=O)[nH]1	84.5% (inactive)
COc1cc2c(CCNC(C)=O)c[nH]c2cc1Cl	71.1% (inactive)
CN1C[C@H](CNC(=O)OCc2ccccc2)C[C@@H]2c3cccc4c3c(cn4C)C[C@H]21	111% (inactive)
Oc1ccc(-c2nc(-c3ccc(F)cc3)c(-c3ccncc3)[nH]2)cc1	97.9% (inactive)
N[C@@H](CS(=O)O)C(=O)O	111% (inactive)
S=C(Nc1ccccc1)Nc1nccs1	61.2% (inactive)
CCNC(=O)[C@H]1O[C@@H](n2cnc3c(N)ncnc32)C(O)[C@H]1O (stereo partly specified)	110% (inactive)
Nc1nc(N)c2nc(-c3ccccc3)c(N)nc2n1	109% (inactive)
CC(C)C[C@H](N)CSSC[C@@H](N)CC(C)C	39.2% (inactive)
COC(=O)[C@H]1[C@H]2C[C@H]3c4[nH]c5ccccc5c4CCN3C[C@H]2CC[C@@H]1O	110% (inactive)
CCN(CC)CCOC(=O)c1ccc(N)cc1	112% (inactive)
c1ccc2sc(C3(N4CCCCC4)CCCCC3)cc2c1	93.4% (inactive)
Clc1ccccc1C(c1ccccc1)(c1ccccc1)n1ccnc1	114% (inactive)
C[N+](C)(C)CCO	96.9% (inactive)
C=CC1(C)CC(=O)C2(O)C(C)(O1)C(OC(C)=O)C(O)C1C(C)(C)CCC(O)C12C (stereo unspecified)	97% (inactive)
COC(=O)C(C)(N)Cc1ccc(O)cc1 (stereo unspecified)	123% (inactive)
CNCCCN1c2ccccc2CCc2ccccc21	82.9% (inactive)
COc1cc(NS(C)(=O)=O)ccc1Nc1c2ccccc2nc2ccccc12	106% (inactive)
O=C(O)CCC(C(=O)O)N1C(=O)c2ccccc2C1=O (stereo unspecified)	105% (inactive)
CN[C@H](CC(C)C)C(=O)N[C@H]1C(=O)N[C@@H](CC(N)=O)C(=O)N[C@H]2C(=O)N[C@H]3C(=O)N[C@H](C(=O)N[C@H](C(=O)O)c4cc(O)cc(O)c4-c4cc3ccc4O)[C@H](O)c3ccc(c(Cl)c3)Oc3cc2cc(c3O[C@@H]2O[C@H](CO)[C@@H](O)[C@H](O)[C@H]2O[C@H]2C[C@](C)(N)[C@H](O)[C@H](C)O2)Oc2ccc(cc2Cl)[C@H]1O	103% (inactive)
CCC(NC(C)C)C(O)c1ccc(O)c(O)c1 (stereo unspecified)	85.9% (inactive)
CC(C)C[C@H](NC(=O)C1OC1C(=O)O)C(=O)NCCCCN=C(N)N (stereo partly specified)	108% (inactive)
Fc1ccc(C(c2ccc(F)cc2)N2CCN(C/C=C/c3ccccc3)CC2)cc1	91.5% (inactive)
C[N+]1(C)C2CC(OC(=O)[C@H](CO)c3ccccc3)CC1C1OC12 (stereo partly specified)	105% (inactive) and 146% (inactive)
NC(=O)c1ncn([C@@H]2O[C@H](CO)[C@@H](O)[C@H]2O)c1O	94.8% (inactive)
O=C(O)c1cc(=O)c2c(Cl)cc(Cl)cc2[nH]1	113% (inactive)

Compound	vessel count % control
COc1ccccc1N1CCNCC1	96.7% (inactive)
CSC(=N)N	68.6% (inactive)
O=C(O)/C=C/C(O)c1ccc(Cl)cc1 (stereo unspecified)	115% (inactive)
CC(C)(C)[C@]1(O)CCN2C[C@H]3c4ccccc4CCc4cccc(c43)[C@@H]2C1	71.1% (inactive) and 90% (inactive)
O=C(O)Cc1ccc(O)c(O)c1	107% (inactive)
CCCn1c(=O)[nH]c(=O)c2[nH]cnc21	97.5% (inactive)
CCOC(=O)N1CCC(=C2c3ccc(Cl)cc3CCc3cccnc32)CC1	103% (inactive)
O=C(Nc1ccccc1)c1cc([N+](=O)[O-])ccc1Cl	90.3% (inactive)
NC1C=CC=C(C(=O)O)C1 (stereo unspecified)	114% (inactive)
NC1CONC1=O (stereo unspecified)	117% (inactive)
CCSC(N)=Nc1ccc(C(F)(F)F)cc1	87.5% (inactive)
COc1cc(/C=C(\C#N)C(=O)c2ccc(O)c(O)c2)cc(I)c1O	94.3% (inactive)
O=C(O)c1cccnc1Nc1cccc(C(F)(F)F)c1	102% (inactive)
C=CC(N)CCC(=O)O (stereo unspecified)	85.7% (inactive)
O=C(O)CCCC[C@@H]1CCSS1	100% (inactive)
NCCCCC(=O)O	84.3% (inactive)
O=C(O)CCCCCC[C@H]1C(=O)NC(=O)N1CC[C@@H](O)C1CCCCC1	93.1% (inactive)
CCCN1CCC[C@H](c2cccc(O)c2)C1	77.4% (inactive)
CC1=NN=C(c2ccc(N)cc2)c2cc3c(cc2C1)OCO3	96.1% (inactive)
NC(C(=O)N[C@@H]1C(=O)N2C(C(=O)O)=C(Cl)CS[C@H]12)c1ccccc1 (stereo partly specified)	108% (inactive)
CCOC(=O)C1=C[C@]2(CC)CCCN3CCc4c(n1c1ccccc41)[C@@H]32	0% (inactive)
O=C1C(c2c(O)[nH]c3c(Cl)cc(Cl)cc23)=Nc2ccc(Br)cc21	123% (inactive)
NC(=O)c1ccc(OCC(O)CN2CC=C(c3ccc(F)cc3)CC2)cc1 (stereo unspecified)	79.7% (inactive)
